Laboratory results published in patent publication US7015251B1 (priority 1999, dated 2006).
≈ marks a conversion by molar mass, not a printed value.

How the values were obtained:
PC-3 = experiment: MTT dye assay at 72 hrs, PC-3; format: cell-based, human; conditions: CERAMIDE (25 μg/nl) alone
Jurkat cells [1] = experiment: Jurkat TUNEL assay for apoptosis; format: cell-based, human; conditions: 48 hours
Protocol: Terminal deoxynucleotide transferase (TdT) mediated deoxyuridine triphosphate (dUTP) nick-end labeling (TUNEL) assay. […] At 24 and 48 hours, DNA strand breaks were labeled with TUNEL assay (In Situ Cell Death Detection Kit, Fluorescein; Boehringer Mannheim, Indianapolis, Ind.), and cellular apoptosis was measured by flow cytometry.

Tu138 cells [2] = experiment: Tu138 MTT dye assay (cytotoxicity, isobologram); conditions: for cytotoxicity: 3 days of culture; for cell cytotoxicity (time kinetics): ceramide 25 μg/ml alone
Protocol: Tu138, an adherent squamous carcinoma cell line of the head and neck was established at U T M D Anderson Cancer Center, Houston, Tex. (20, 21) and was generously provided by Dr. Gary Clayman's laboratory. Tu138 cells were maintained routinely in T-75 culture flasks (Falcon, Inc., NJ) at a plating cell density of 0.1×10^6 per 75 sq. cm. surface area in complete D-MEM/F-12 culture medium (10 ml) containing 10% fetal bovine serum (FBS, Atlanta Biologicals, Ga.), 2 mM glutamine (Gibco, NY), 50 units/mL penicillin, […] streptomycin (Gibco, NY) and 20 mM Hepes (Sigma, MO) in a 5% CO2 atmosphere at 37° C. Tu138 cells were replenished with fresh complete culture medium twice weekly until confluence.
At the indicated times (24 to 72 hours), cells were subjected to (a) tetrazolium-based dye assay for cell survival measurements, (b) flow cytometry analysis for cell cycle progression and (c) measurements of apoptosis by TUNEL assay.
(22). At the end of an incubation period of 4 hours, culture plates were centrifuged at 300 g for 2 minutes.

Tu138 tumor = Tu138 tumor in nude mice, intraperitoneal treatment; conditions: paclitaxel 120 μg and/or ceramide 500 μg, within 4 weeks of administration
Tu138 cells [3] = experiment: Tu138 cell cycle measurements (flow cytometry); format: cell-based, human; conditions: ceramide 25 μg/ml alone, 24 or 48 hours, n=4
Protocol: (§1) At the end of either 24 or 48 hours, cells were trypsinized and washed with the culture medium. For cell cycle measurements, cells were mixed with 0.5 ml of 0.1% propidium iodide solution (New Concepts Scientific Ltd. ON) containing 0.1% sodium citrate and 0.1% NP-40. RNase (1 μg) was added to each sample and cells were incubated at 4° C. for 30 minutes. At least 1×10^4 cells were acquired on a precalibrated FACScan (Beckton Dickinson, Calif.) flow cytometer. For precalibration “DNA QC” (Becton Dickinson, Calif.) kit was utilized. The acquired cells were then subjected to cell cycle analysis by the use of “Modfit LT” software (Beckton Dickinson, Calif.). For measurements of apoptosis, In Situ Cell Death Detection Kit (Boehringer Manheim, Ind.) followed by flow cytometry analysis was utilized.

TU138 = experiment: MTT dye assay at 72 hrs, TU138; format: cell-based, human; conditions: CERAMIDE (25 μg/nl) alone; TU138
Jurkat cells [4] = experiment: Jurkat cell proliferation assay (3H-thymidine uptake); format: cell-based, human; conditions: for [3H]thymidine uptake counts ± SD: Ceramide 25 μg/ml
Protocol: Cell Proliferation Assays. […] DNA synthesis was assessed by the addition of ^3H-thymidine (1 μCi/well; specific activity—6.7 Ci/mmol; ICN Pharmaceuticals, Costa Mesa, Calif.) uptake 24 hours before the end of the 72 hour growth period at a final concentration of 1 μCi/well.

Tu138 cell-tumor = experiment: Tu138 tumor in nude mice, subcutaneous treatment near tumor site; conditions: ceramide alone 500 μg/0.2 mL s.c. thrice weekly
Protocol: To corroborate in vitro findings Tu138 cells were planted subcutaneously on nude mice. […] Tumor size was measured once a week. All groups of mice were sacrificed on day 45 and excised tumors were weighed.

Jurkat = experiment: MTT dye assay at 72 hrs, Jurkat; format: cell-based, human; conditions: CERAMIDE (25 μg/nl) alone
Jurkat cells [5] = experiment: Jurkat histologic evaluation (Wright's stain); format: cell-based, human; conditions: ceramide 25 μg/ml, 10% serum, 48 hours
Protocol: Histologic Evaluation. […] Wright's stains of all slides were performed using an automated Hemastainer (Geometric Data, Wayne, Pa.). Slides were analyzed microscopically, photographed (Olympus BH 2, Tokyo, Japan) at 100, 200, and 400 power, and evaluated for morphological changes.

LnCap = experiment: MTT dye assay at 72 hrs, LnCap; format: cell-based, human; conditions: CERAMIDE (25 μg/nl) alone; LnCap
tumor cell lines = experiment: MTT dye assay at 72 hrs, tumor cell lines tested (ID50); format: cell-based, human; conditions: ceramide, approximately
HT29 = experiment: MTT dye assay at 72 hrs, HT29; format: cell-based, human; conditions: CERAMIDE (25 μg/nl) alone; HT29
Tu138 cells [6] = test system: Tu138 cells
Excerpt: The vehicle control consisted of cremophore only at the concentration utilized in the combination treatment.
In a separate experiment nude mice were implanted with 1−2×10^6 Tu138 cells. […] The vehicle control consisted of cremophore only at the concentration utilized in the combination treatment.

Jurkat cells [7] = experiment: Jurkat cell cycle analysis (propidium iodide, FACScan); format: cell-based, human; conditions: ceramide treatment, 10% fetal bovine serum, 24 hours
Excerpt: Cell Cycle Analysis. […] Pie graphs (FIGS. 3A–F) were generated and normalized to a control value of 100%.

RWP-2 = experiment: MTT dye assay at 72 hrs, RWP-2; format: cell-based, human; conditions: CERAMIDE (25 μg/nl) alone; RWP-2
Tu138 cells [8] = experiment: Tu138 TUNEL assay for apoptosis; format: cell-based, human; conditions: ceramide 25 μg/ml alone
Protocol: as §1

## CCCCCCCCCCCCC/C=C/[C@@H](O)[C@H](CO)NC(=O)CCCCC [Ceramide, N-hexanoyl-D-sphingosine]
PC-3
  % Growth Inhibition: 8%
Jurkat cells [1]; 12.5 μg/ml of ceramide
  apoptosis (TUNEL): 0.41%
Jurkat cells [1]; 25 μg/ml of ceramide
  apoptosis (TUNEL): 0.33%
Tu138 cells [2]; ceramide 12.5 μg/ml
  cytotoxicity: 19%
Tu138 cells [2]; 24 hours
  cell cytotoxicity (time kinetics): 32.7%
Tu138 cells [2]; 72 hours
  cell cytotoxicity (time kinetics): 54.5%
Tu138 cells [2]; ceramide 25 μg/ml
  cytotoxicity: 46%
Tu138 cells [2]; ceramide alone, n=6, 3 days
  ED50 (cytotoxicity, MTT): 22 ± 5 µg/mL (≈ 55.3 µM)
Tu138 tumor
  tumor size / tumor burden reduction in comparison to control (vehicle): no significant effect
Tu138 cells [3]
  effect on cell cycle progression: did not significantly affect either G0–G1 or G2-M phase
Tu138 cells [3]; listed as ceramide
  effect on cell cycle progression: no significant effect
TU138
  % Growth Inhibition: 28%
Jurkat cells [4]; Experiment 1
  [3H]thymidine uptake counts ± SD: 378245 ± 28689 cpm
Jurkat cells [4]; Experiment 2
  [3H]thymidine uptake counts ± SD: 415740 ± 6168 cpm
Jurkat cells [4]; Experiment 3
  [3H]thymidine uptake counts ± SD: 301993 ± 67599 cpm
Jurkat cells [4]; Experiment 4
  [3H]thymidine uptake counts ± SD: 259230 ± 54914 cpm
Jurkat cells [4]; Experiment 5
  [3H]thymidine uptake counts ± SD: 189052 ± 3534 cpm
Jurkat cells [4]; ceramide added alone, all test concentrations (0 to 50 μg/ml), 10% fetal bovine serum
  growth inhibition: ≤ 6%
Jurkat cells [4]; low serum (1%)
  ceramide-mediated growth inhibition: > 99%
Tu138 cell-tumor; excised day 45
  tumor weight: substantial reduction in tumor weight
Tu138 cell-tumor; week 5
  tumor size: slight decrease in tumor size
Jurkat
  % Growth Inhibition: 8%
Jurkat cells [5]
  morphological changes (Wright's stain): morphologically indistinguishable from control cells
LnCap
  % Growth Inhibition: 25%
Tumor cell lines
  calculated ID50 (cytotoxicity): 30.0 to 40.0 µg/mL
HT29
  % Growth Inhibition: 61%
Tu138 cells [6]; ceramide delivered in cremophore, nude mice
  toxicity: no toxicity
Tu138 cells [6]; paclitaxel 120 μg and/or ceramide 500 μg in cremophore, s.c. near tumor thrice weekly from day 4 for 5 weeks
  Tumor Size (mm^2) at Week 5: 109.5 ± 14.1 mm^2
Tu138 cells [6]; paclitaxel 120 μg and/or ceramide 500 μg in cremophore, s.c., week 5 (Table 3)
  reduction in tumor growth / tumor size vs vehicle control: 44.7%
Jurkat cells [7]
  cell cycle pattern: did not differ from the non-ceramide-exposed control
RWP-2
  % Growth Inhibition: 6%
Tu138 cells [8]; 24 hours
  apoptosis (TUNEL): 9.7%
Tu138 cells [8]; 48 hours
  apoptosis (TUNEL): 13.6%
